Results: patent EP0702683B1, “06-SUBSTITUTED GUANINE DERIVATIVES, A PROCESS FOR THEIR PREPARATION AND THEIR USE IN TREATING TUMOUR CELLS” (Cancer Research Technology Limited, priority 1993, dated 1994)
Where two headings read alike, the source gives them in different places.

Legend:
[1] = system: A375M cells; test: Sensitization of A375M cells to BCNU (MTT assay); format: cell-based, human; conditions: for A375M sensitization (D50.^C/D50.^I) 0.5uM: inactivator 0.5uM 2 hours before; for A375M sensitization (D50.^C/D50.^I) 5.0uM: inactivator 5.0uM 2 hours before
Description: Sensitization of A375M cells to the cytotoxic effects of BCNU was analysed by MTT assay ^24 differing from the XTT assay described above as follows. […] After 6 days MTT solution (4mg/ml) was added and cells incubated for 3 hours at 37°C. Medium was aspirated and the resulting purple formazan crystals were solubilised in DMSO (120μl) and cell viability was quantified by measuring absorption at 540nm using a microtitre plate reader.

[2] = Growth inhibition of Xeroderma pigmentosum cells by inactivator alone; format: cell-based, human; conditions: human, xeroderma pigmentosum cells; Figs 5 & 6; read-out: toxic concentrations in XP cells relative to those at which sensitization to BCNU was observed
Description: (§1) In order to assess the effects on cell growth alone, Xeroderma pigmentosum cells and Chinese Hamster V79 cells were exposed to increasing concentrations (up to 600µM) of selected inactivators for 2h at 37°. In some cases, the inactivators were allowed to undergo hydrolysis at 37°C for 20 hours and then added to […] in order to assess the extent to which the decomposition products of the agents might inhibit cell growth. After 6 days the extent of cell growth was determined as described above.

[3] = system: XP cells; test: as above; format: cell-based, human; conditions: inactivator alone, Figure 6, compared with V79 cells, in words
Description: as §1

[4] = molecular target: T1, ATase (Rattus norvegicus, UniProt P24528); test: Inactivation of ATase activity in Yoshida cells; format: cell-based
T1 construct: endogenous in cells; host or cells: Yoshida
T1 sequence (P24528 1-209): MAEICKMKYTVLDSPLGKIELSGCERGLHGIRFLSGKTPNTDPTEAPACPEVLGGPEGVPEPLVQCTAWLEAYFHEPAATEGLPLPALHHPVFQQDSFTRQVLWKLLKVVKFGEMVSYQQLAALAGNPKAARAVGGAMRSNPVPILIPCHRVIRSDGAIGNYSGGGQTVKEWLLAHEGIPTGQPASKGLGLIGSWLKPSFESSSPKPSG
Description: (§2) Mammalian cells were cultured under standard conditions. For example, Raji (a human lymphoblastoid cell line from a Burkitt's lymphoma) cells were grown in suspension culture in RPMI medium supplemented with 10% horse serum. A375M cells are human melanoma cells from which the xenografts described below were established following subcutaneous injection into nude mice: WiDr cells are a human colon carcinoma cell line: Hamster+120 cells are a mitozolomide-selected subline of a Chinese hamster lung fibroblast V79 cell line called RJKO: Yoshida cells are a rat carcinosarcoma cell line and YRbus is a busulphan resistant subline thereof: XP cells are an SV40-transformed fibroblast cell line originally from the skin of a Xeroderma pigmentosum patient, pHMGhAT2b cells are a clone of these cells that have been transfected with a mammalian cell expression vector containing the human ATase cDNA and pHMGla cells are a clone that have been transfected with the expression vector only (i.e. one not containing the human ATase cDNA). Cell pellets were resuspended in cold (4°C) buffer I containing 2 µg/ml leupeptin and sonicated for 10 seconds at 12 µ peak to peak distance. After cooling in ice, the cells were sonicated for a further 10 seconds at 18 µ. Immediately after sonication, 0.01 volumes of 8.7 mg/ml phenylmethanesulphonylfluoride in ethanol was added and the sonicates centrifuged at 15 000 g for 10 minutes at 4°C to pellet cell debris. The supernatant was kept for determination of ATase activity (see below).
(§3) Cells were diluted to 10^6/ml in culture medium containing either the appropriate concentration of inactivator or an equivalent volume of vehicle (DMSO). Following incubation at 37°C for 2 hours the cells were harvested by centrifugation, washed twice with PBS and the resulting cell pellets (between 1-2 x 10^7 per pellet) stored at -20°C. ATase activity was determined as described above, in duplicate sonicated cell extracts and expressed as the percentage activity remaining based on that present in the untreated controls (for example 350-450 fm/mg in Raji cells).

[5] = molecular target: T2, ATase (Homo sapiens, UniProt P16455); test: Inactivation of ATase activity in Raji cells; format: cell-based; parameters: endogenous in cells; host or cells: Raji
T2 sequence (P16455 1-207): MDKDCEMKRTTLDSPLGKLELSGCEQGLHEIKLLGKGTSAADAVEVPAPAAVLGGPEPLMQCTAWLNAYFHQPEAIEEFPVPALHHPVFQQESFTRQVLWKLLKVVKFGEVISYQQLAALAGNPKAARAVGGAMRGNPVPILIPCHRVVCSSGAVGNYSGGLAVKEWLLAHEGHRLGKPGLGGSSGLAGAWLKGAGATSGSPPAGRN
Description: as §2
Cells were diluted to 10^6/ml in culture medium containing either the appropriate concentration of inactivator or an equivalent volume of vehicle (DMSO). Following incubation at 37°C for 2 hours the cells were harvested by centrifugation, washed twice with PBS and the resulting cell pellets (between 1-2 x 10^7 per pellet) stored at -20°C.

[6] = Stability of inactivators at 37°C (spectrophotometric half life); format: physicochemical
Description: Inactivators (10mM in DMSO) were diluted to 0.1mM in prewarmed degassed buffer I (1mM EDTA, 50mM Tris pH 8.3) or PBS (pH 7-7.2). […] Samples were immediately transferred to a CARY13 spectrophotometer (cuvette block held at 37°C) and scanned at an appropriate wavelength (according to the spectral properties of the compound) at 3-10 minute intervals for up to 80 hours. The results were expressed as percentage absorbance change versus time and T1/2 values (half life) extrapolated from this.

[7] = molecular target: T2, ATase; test: Inactivation of ATase activity in WiDr cells; format: cell-based; parameters: endogenous in cells; host or cells: Raji
Description: as §2, with “Immediately after sonication, 0.01 volumes of 8.7 mg/ml phenylmethanesulphonylfluoride in ethanol was added and the sonicates centrifuged at 15 000 g for 10 minutes at 4°C to pellet cell debris. The supernatant was kept for determination of ATase activity (see below).” left out

[8] = molecular target: T2, ATase; test: Inactivation of ATase activity in XP cells; format: cell-based; parameters: endogenous in cells; host or cells: Raji
Description: as §2, with “Immediately after sonication, 0.01 volumes of 8.7 mg/ml phenylmethanesulphonylfluoride in ethanol was added and the sonicates centrifuged at 15 000 g for 10 minutes at 4°C to pellet cell debris. The supernatant was kept for determination of ATase activity (see below).” left out

[9] = system: ATase; test: Inactivation of ATase in mammalian cells, summary over cell lines; format: cell-based; conditions: range over the cell lines of Table 5 (table head: µM; no unit in the sentence); read-out: I50 values for ATase inactivation in human, rat and Chinese hamster cells
Description: Mammalian cells were cultured under standard conditions. For example, Raji (a human lymphoblastoid cell line from a Burkitt's lymphoma) cells were grown in suspension culture in RPMI medium supplemented with 10% horse serum. […]
as §3, with “Following incubation at 37°C for 2 hours the cells were harvested by centrifugation, washed twice with PBS and the resulting cell pellets (between 1-2 x 10^7 per pellet) stored at -20°C.” left out

[10] = system: Raji cells; test: Sensitization of Raji cells to BCNU (XTT assay); format: cell-based, human; conditions: for Raji sensitization (D90.^C/D90.^I) 1.0µM / Raji sensitization (D90.^C/D90.^I) O.1µM: BCNU, 2 hour pretreatment; for Raji sensitization (D90.^C/D90.^I) 1.0µM: inactivator 1.0µM; for Raji sensitization (D90.^C/D90.^I) O.1µM: inactivator O.1µM; for sensitizing Raji cells to the growth inhibitory effects of BCNU, compared with BeG: Figure 2, in words
Description: Following a 2 hour incubation at 37°C, medium containing either increasing doses of BCNU, temozolomide or equivalent vehicle was added and the cells allowed to grow for 6 days. At this time XTT solution was added and the cells incubated for a further 4 hours at 37°C. The resulting red/orange formazan reaction product was quantified by measuring absorption at 450nm on a microtitre platereader.

[11] = 0.1mM in PBS (pH 7-7.2), read-out: T1/2(h) in PBS (converted)
[12] = 0.1mM in buffer I (1mM EDTA, 50mM Tris pH 8.3), read-out: T1/2(h) in Buffer I (converted)

Compound	A375M sensitization (D50.^C/D50.^I) 0.5uM [1]	A375M sensitization (D50.^C/D50.^I) 5.0uM [1]	selectivity ratio [2]	susceptibility of XP cells to the growth inhibitory effects of the inactivator [3]	IC50 [5] [µM]	half-life at 100 µM [6, 11] [h]	half-life at 100 µM [6, 12] [h]	IC50 [9] [µM]	Raji sensitization (D90.^C/D90.^I) 1.0µM [10]	Raji sensitization (D90.^C/D90.^I) O.1µM [10]	other results
Nc1nc(OCc2ccco2)c2nc[nH]c2n1 [B.4203, O^6-furfurylguanine]	2.0	2.5	≥ 100	as susceptible	0.04	0.17	0.3	0.04 to 0.12	5.7	2.6	IC50 ([4]; Rat Yoshida cells, 2 hours at 37°C, read-out: Inactivation of ATase in Mammalian Cells I50(µM) Rat Yoshida): 0.06 µM; IC50 ([5]; Human Raji cells, 2 hours at 37°C (Table 5), read-out: Inactivation of ATase in Mammalian Cells I50(µM) Human Raji): 0.04 µM; IC50 ([7]; Human WiDr cells, 2 hours at 37°C, read-out: Inactivation of ATase in Mammalian Cells I50(µM) Human WiDr): 0.08 µM; IC50 ([8]; Human XP cells, 2 hours at 37°C, read-out: Inactivation of ATase in Mammalian Cells I50(µM) Human XP): 0.06 µM
Nc1nc(OCc2cccs2)c2nc[nH]c2n1 [B.4205, O^6-thenylguanine]	2.8	3.5	≥ 100	more sensitive than V79 cells	0.02	0.6	1.2	0.02 to 0.03	8.0	8.4	A375M sensitization (D50.^C/D50.^I) 1.0uM ([1]; inactivator 1.0uM 2 hours before): 2.3; IC50 [4]: 0.02 µM; IC50 ([5]; read-out: Inactivation of ATase in Mammalian Cells I50(µM) Human Raji, Human Raji cells, 2 hours at 37°C (Table 5)): 0.02 µM; IC50 [7]: 0.02 µM; IC50 [8]: 0.03 µM; sensitizing Raji cells to the growth inhibitory effects of BCNU, compared with BeG ([10]; 0.1uM inactivator): more effective than BeG; sensitizing Raji cells to the growth inhibitory effects of BCNU, compared with BeG ([10]; 1.0uM inactivator): equally effective
